Measured values: US7179823B1, “5-membered n-heterocyclic compounds with hypoglycemic and hypolipidemic activity” (Takeda Pharmaceutical Company Limited, priority 1999, dated 2007)

Row | SMILES | melting point [°C]
1 | Cc1oc(-c2ccco2)nc1COc1ccc(COc2nn(Cc3ccc(OCc4nc(-c5ccco5)oc4C)cc3)cc2C(=O)O)cc1 [Example 326, 1-[4-[2-(2-furyl)-5-methyl-4-oxazolylmethoxy]benzyl]-3-[4-[2-(2-furyl)-5-methyl-4-oxazolylmethoxy]benzyloxy]-1H-pyrazole-4-carboxylic acid] | 144 to 145
2 | CCOc1nn(Cc2cccc(OCCn3ncc4ccccc4c3=O)c2)cc1CCC(=O)O [Example 221, 3-[3-ethoxy-1-[3-[2-[1-oxophthalazin-2(1H)-yl]ethoxy]benzyl]-1H-pyrazol-4-yl]propionic acid] | 146 to 147
3 | Cc1nc(COc2ccc(Cn3cc(CCC(=O)O)c(-c4ccccc4)c3)cc2)cs1 [Example 42, 3-[1-[4-(2-methyl-4-thiazolylmethoxy]benzyl]-4-phenyl-3-pyrrolyl]propionic acid] | 113 to 114
4 | CCOc1nn(Cc2ccc(OCc3cn4c(OCC)cccc4n3)cc2)cc1CCC(=O)O [Example 227, 3-[3-ethoxy-1-[4-(5-ethoxyimidazo[1,2-a]pyridin-2-ylmethoxy)benzyl]-1H-pyrazol-4-yl]propionic acid] | 197 to 198
5 | CCOc1nn(Cc2ccc(OCc3nc(-c4ccccc4)oc3C)cn2)cc1CCC(=O)O [Example 258, 3-[3-ethoxy-1-[5-(5-methyl-2-phenyl-4-oxazolylmethoxy)-2-pyridylmethyl]-1H-pyrazol-4-yl]propionic acid] | 133 to 134
6 | O=C(O)CCc1cn(Cc2ccc(OCc3cccnc3)cc2)nc1-c1ccccc1 [Example 91, 3-[3-phenyl-1-[4-(3-pyridylmethoxy)benzyl]-1H-pyrazol-4-yl]propionic acid] | 112 to 113
7 | Cc1oc(-c2ccccc2)nc1COc1ccc(Cn2cc(CCC(=O)O)c(-c3ccccn3)c2)cc1 [Example 64, 3-[1-[4-(5-methyl-2-phenyl-4-oxazolylmethoxy)benzyl]-4-(2-pyridyl)-3-pyrrolyl]propionic acid] | 155 to 156
8 | Cc1oc(-c2ccccc2)nc1COc1nn(Cc2ccc(Oc3ccccc3)cc2)cc1CCC(=O)O [Example 335, 3-[3-(5-methyl-2-phenyl-4-oxazolylmethoxy)-1-(4-phenoxybenzyl)-1H-pyrazol-4-yl]propionic acid] | 120 to 121
9 | COc1ccc(-c2nn(Cc3ccc(OCc4nc(-c5ccccc5)oc4C)cc3)cc2CCC(=O)O)cc1 [Example 102, 3-[3-(4-methoxyphenyl)-1-[4-(5-methyl-2-phenyl-4-oxazolylmethoxy)benzyl]-1H-pyrazol-4-yl]propionic acid] | 137 to 138
10 | O=C(O)CCc1cn(Cc2cc(OCc3ccccc3)cc(OCc3csc(-c4cnccn4)n3)c2)cc1-c1ccccc1 [Example 75, 3-[1-[3-benzyloxy-5-[2-(2-pyrazinyl)-4-thiazolylmethoxy]benzyl]-4-phenyl-3-pyrrolyl]propionic acid] | 109 to 110
11 | O=C(O)CCc1cn(Cc2ccc(OCc3ccccn3)cc2)cc1-c1ccccc1 [Example 11, 3-[4-phenyl-1-[4-(2-pyridylmethoxy)benzyl]-3-pyrrolyl]propionic acid] | 109 to 110
12 | CN(CCOc1ccc(Cn2cc(CCC(=O)O)c(-c3ccccc3)c2)cc1)c1ccccn1 [Example 49, 3-[1-[4-[2-[N-methyl-N-(2-pyridyl)amino]ethoxy]benzyl]-4-phenyl-3-pyrrolyl]propionic acid] | 110 to 111
13 | CCOC(=O)c1cn(Cc2ccc(OCc3ccccc3)cc2)nc1-c1ccc(F)cc1 [Example 280, ethyl 1-(4-benzyloxybenzyl)-3-(4-fluorophenyl)-1H-pyrazole-4-carboxylate] | 103 to 104
14 | O=C(O)CCc1cn(Cc2ccc(OCc3noc(-c4ccccc4)n3)cc2)nc1-c1ccccc1 [Example 85, 3-[3-phenyl-1-[4-(5-phenyl-1,2,4-oxadiazole-3-ylmethoxy)benzyl]-1H-pyrazol-4-yl]propionic acid] | 166 to 167
15 | O=C(O)CCc1cn(Cc2ccc(OCc3ccncc3)cc2)cc1-c1ccccc1 [Example 13, 3-[4-phenyl-1-[4-(4-pyridylmethoxy)benzyl]-3-pyrrolyl]propionic acid] | 124 to 125
16 | Cc1oc(-c2ccccc2)nc1COc1ccc(Cn2cc(CCC(=O)O)c(C(C)C)n2)cc1 [Example 108, 3-[3-isopropyl-1-[4-(5-methyl-2-phenyl-4-oxazolylmethoxy)benzyl]-1H-pyrazol-4-yl]propionic acid] | 97 to 98
17 | CCOC(=O)c1cn(Cc2ccc(OCc3ccccc3)cc2)nc1-c1ccccc1 [Example 76, ethyl 1-(4-benzyloxybenzyl)-3-phenyl-1H-pyrazole-4-carboxylate] | 102 to 103
18 | O=C(O)CCc1cn(Cc2ccc(OCc3cncc(-c4ccccc4)c3)cc2)nc1-c1ccccc1 [Example 290, 3-[3-phenyl-1-[4-(5-phenyl-3-pyridylmethoxy)benzyl]-1H-pyrazol-4-yl]propionic acid] | 161 to 162
19 | CCOc1cc(Cn2cc(CCC(=O)O)c(-c3ccccc3)c2)cc(OCc2csc(-c3ccccc3)n2)c1 [Example 274, 3-[1-[3-ethoxy-5-(2-phenyl-4-thiazolylmethoxy)benzyl]-4-phenyl-3-pyrrolyl]propionic acid] | 109 to 110

Row | SMILES | melting point [°C]
20 | O=C(O)Cc1cn(Cc2ccc(OCc3ccccc3)cc2)nc1-c1ccc(F)cc1 [Example 317, [1-(4-benzyloxybenzyl)-3-(4-fluorophenyl)-1H-pyrazol-4-yl]acetic acid] | 194 to 195
21 | CCOc1nn(Cc2cncc(OCc3nc(-c4ccccc4)oc3C)c2)cc1CCC(=O)O [Example 213, 3-[3-ethoxy-1-[5-(5-methyl-2-phenyl-4-oxazolylmethoxy)-3-pyridylmethyl]-1H-pyrazol-4-yl]propionic acid] | 133 to 134
22 | CCOc1nn(Cc2ccc(OCCn3ncc4ccccc4c3=O)cc2)cc1CCC(=O)O [Example 220, 3-[3-ethoxy-1-[4-[2-[1-oxophthalazin-2(1H)-yl]ethoxy]benzyl]-1H-pyrazol-4-yl]propionic acid] | 152 to 153
23 | Cc1oc(-c2ccccc2)nc1COc1nn(Cc2ccc(Oc3ccccc3)cc2)cc1C(=O)O [Example 330, 3-(5-methyl-2-phenyl-4-oxazolylmethoxy)-1-(4-phenoxybenzyl)-1H-pyrazole-4-carboxylic acid] | 222 to 223
24 | Cc1oc(-c2ccccc2)nc1COc1ccc(Cn2cc(CCC(=O)O)c(-c3ccccc3)c2)cn1 [Example 268, 3-[1-[6-(5-methyl-2-phenyl-4-oxazolylmethoxy)-3-pyridylmethyl]-4-phenyl-3-pyrrolyl]propionic acid] | 123 to 124
25 | Cc1sc(-c2ccccc2)nc1COc1ccc(Cn2cc(CCC(=O)O)c(-c3ccccc3)c2)cc1 [Example 28, 3-[1-[4-(5-methyl-2-phenyl-4-thiazolylmethoxy)benzyl]-4-phenyl-3-pyrrolyl]propionic acid] | 157 to 158
26 | O=C(O)CCc1cn(Cc2ccc(OCc3csc(-c4ccccc4)n3)cc2)nc1-c1ccccc1 [Example 304, 3-[3-phenyl-1-[4-(2-phenyl-4-thiazolylmethoxy)benzyl]-1H-pyrazol-4-yl]propionic acid] | 132 to 133
27 | CCOc1cc(Cn2cc(CCC(=O)O)c(-c3ccccc3)c2)cc(OCc2nc(-c3ccccc3)oc2C)c1 [Example 272, 3-[1-[3-ethoxy-5-(5-methyl-2-phenyl-4-oxazolylmethoxy)benzyl]-4-phenyl-3-pyrrolyl]propionic acid] | 126 to 127
28 | CCOc1nn(Cc2ccnc(OCc3cn4c(-c5ccccc5)cccc4n3)c2)cc1CCC(=O)O [Example 238, 3-[3-ethoxy-1-[2-(5-phenylimidazo[1,2-a]pyridin-2-ylmethoxy)-4-pyridylmethyl]-1H-pyrazol-4-yl]propionic acid] | 177 to 178
29 | Cc1oc(-c2ccncc2)nc1COc1ccc(Cn2cc(CCC(=O)O)c(-c3ccccc3)n2)cc1 [Example 83, 3-[1-[4-[5-methyl-2-(4-pyridyl)-4-oxazolylmethoxy]benzyl]-3-phenyl-1H-pyrazol-4-yl]propionic acid] | 154 to 155
30 | CCOc1nn(Cc2cc(OCc3nc(-c4ccccc4)oc3C)no2)cc1CCC(=O)O [Example 219, 3-[3-ethoxy-1-[3-(5-methyl-2-phenyl-4-oxazolylmethoxy)-5-isoxazolylmethyl]-1H-pyrazol-4-yl]propionic acid] | 142 to 143
31 | O=C(O)c1cn(Cc2ccc(Oc3ccccc3)cc2)nc1OCc1ccc(Oc2ccccc2)cc1 [Example 320, 1-(4-phenoxybenzyl)-3-(4-phenoxybenzyloxy)-1H-pyrazole-4-carboxylic acid] | 141 to 142
32 | O=C(O)CCc1cn(Cc2ccc(OCc3ccc(-c4ccccc4)cn3)cc2)nc1-c1ccccc1 [Example 302, 3-[3-phenyl-1-[4-(5-phenyl-2-pyridylmethoxy)benzyl]-1H-pyrazol-4-yl]propionic acid] | 149 to 150
33 | Cn1c(COc2ccc(Cn3cc(CCC(=O)O)c(-c4ccccc4)n3)cc2)nc2ccccc21 [Example 292, 3-[1-[4-(1-methyl-1H-benzimidazol-2-ylmethoxy)benzyl]-3-phenyl-1H-pyrazol-4-yl]propionic acid] | 225 to 226
34 | O=C(O)c1cn(Cc2cccc(Oc3ccccc3)c2)nc1-c1ccccc1 [Example 50, 1-(3-phenoxybenzyl)-3-phenyl-1H-pyrazole-4-carboxylic acid] | 148 to 149
35 | CCOc1nn(Cc2ccc(OCn3nnc4ccccc43)cc2)cc1CCC(=O)O [Example 229, 3-[1-[4-(1H-benzotriazol-1-ylmethoxy)benzyl]-3-ethoxy-1H-pyrazol-4-yl]propionic acid] | 136 to 137
36 | O=C(O)CCc1cn(Cc2ccc(OCc3ccc(-c4ccccc4)cn3)cc2)cc1-c1ccccc1 [Example 279, 3-[1-[4-(5-phenyl-2-pyridylmethoxy)benzyl]-4-phenyl-3-pyrrolyl]propionic acid] | 169 to 170
37 | O=C(O)CCc1cn(Cc2ccc(OCc3ccc4ccccc4n3)nc2)nc1-c1ccccc1 [Example 298, 3-[3-phenyl-1-(6-(2-quinolylmethoxy)-3-pyridylmethyl]-1H-pyrazol-4-yl]propionic acid] | 166 to 167
